# Source: patent US20120214818A1, “METHODS OF TREATING DIASTOLIC DYSFUNCTION AND RELATED CONDITIONS” (THE BOARD OF TRUSTEES OF THE UNIVERSITY OF ILLINOIS, priority 2009, published 2012)
# System: isolated ventricular myocytes from DOCA-salt and sham mice
# Test: Calcium transient measurements (Fura-2AM) in isolated cardiomyocytes
# Format: cell-based, mouse
# Details: 10 μM ranolazine
# Procedure: Cell shortening and calcium transient measurements: The mechanical properties of the cardiomyocytes were assessed using an IonOptix Myocam System (Ionoptix Inc., Milton, Mass.). Unloaded cardiomyocytes were placed on a glass slide and allowed to adhere for 10 min. Cardiomyocytes were then imaged with an inverted microscope and perfused with a Tyrode's buffer containing 1.2 mmol/L calcium at room temperature. Cardiomyocytes were paced at 0.5 Hz for 10 ms duration, and sarcomere shortening and relengthening were assessed using the following indices: peak fractional shortening (FS), time to 90% peak shortening, and τ, the relaxation time constant (a0+[…]^t/τ, t=time). […] For calcium transient measurements, cardiomyocytes were loaded with 1 μmol/L Fura 2-AM for 10 min at room temperature, and fluorescence measurements were recorded with a dual-excitation fluorescence photomultiplier system (IonOptix). […] The emitted fluorescence was detected at 510 nm. To take into account any inference from background fluorescence, the background fluorescence for each cardiomyocyte was determined by moving the cardiomyocyte out of the view and recording the fluorescence from the bath solution alone. The mechanical properties of the cardiomyocytes were assessed using an IonOptix Myocam System (Ionoptix Inc., Milton, Mass.). […] The emitted fluorescence was detected at 510 nm. […]
structure (smiles),measurement,value
COc1ccccc1OCC(O)CN1CCN(CC(=O)Nc2c(C)cccc2C)CC1 (stereo not shown) [ranolazine],Ca2+ transients,did not affect either group
